According to paper PMC3328499 (PLoS ONE, 2012):

Experiments:
Nd-MalFGK2 [1] = target: T1, Nd-MalFGK2 (Escherichia coli, UniProt P02916+P68183+P68187); test: Native-PAGE (CN-PAGE) binding of [125I]-MalE to Nd-MalFGK2; set-up: species or system E. coli; conditions: maltose 1 mM, AMP-PNP or ATP plus vanadate
T1 construct: made in house; host or cells: E. coli BL21
Procedure: After incubation (10 min, 37°C), samples were analyzed by CN-PAGE followed by Coomassie blue staining (bottom part) and autoradiography (upper part). […] After incubation (10 min, 37°C), samples were analyzed by CN-PAGE followed by Coomassie blue staining (bottom part) then autoradiography (upper part). […] After incubation (10 min, 37°C), samples were analyzed by CN-PAGE and autoradiography. […] The position MalE-31 and MalF-177 are indicated in red. […] When the data were fitted to one-site binding equation, the dissociation constant in the presence of AMP-PNP was ∼79 nM.
(§1) Samples were analyzed by CN-PAGE and autoradiography. […] After incubation (10 min, 37°C), samples were analyzed by CN-PAGE and autoradiography. […] The reported values were derived from 3 independent experiments.
(§2) The MalFGK2 ATPase activity was determined by monitoring the release of inorganic phosphate using photo-colorimetric method. Linear gradient blue-native (BN) and colorless-native (CN) gel electrophoresis was performed as described. Sucrose gradient analysis was performed as described. MalE was iodinated using the Iodogen reagent (Pierce-Thermo Scientific). The specific activity of [^125I]-MalE was ∼2×10^5 c.p.m./μg.

Nd-MalFGK2 [2] = target: T1, Nd-MalFGK2; test: ATPase activity of MalFGK2 in nanodiscs; assay type: biochemical, E. coli
Procedure: Figure 1 ATPase activity of the MalFGK2 complex in nanodiscs. (A) The MalFGK2 complex in nanodisc (lane 1) and detergent solution (lane 2) was analyzed by BN-PAGE and CN-PAGE followed by Coomassie blue staining of the gel. Molecular weight markers: BSA (67/134 kDa); catalase (232 kDa); ferritin (440 kDa). On CN-PAGE, the MalFGK2 complex precipitates as a protein smear at the top of the gel. […] The reported values were derived from 3 independent experiments.
as §1, §2

MalE-MalFGK2 complex = target: T2, MalE-MalFGK2 complex (Escherichia coli, UniProt P02916+P0AEX9+P68183+P68187, T177W/T57C); test: Maltose affinity of transporter-bound MalE (fluorescence quenching, competitive fit and equilibrium titration); assay type: binding, E. coli; conditions: sugar 1 mM added to preformed complex, AMP-PNP
T2 construct: made in house; host or cells: E. coli BL21
Procedure: After incubation (10 min, 37°C), samples were analyzed by CN-PAGE and (A) autoradiography or (B) Coomassie blue staining. […] At the indicated time (arrow), 1 mM maltooligosaccharides were added to the reaction mixture. […] After incubation (10 min, 37°C), samples were analyzed by CN-PAGE and autoradiography.
Fluorescence was recorded on a Cary Eclipse spectrofluorometer at 25°C. […] Excitation and emission wavelength were 280 nm and 350 nm, respectively (10 nm slit widths). […] The fluorescence emission was monitored over time and the signal was allowed to equilibrate after each addition for 180 s.
Competitive one-site ligand binding. […] The data (Fig. 2F, red curve) were fitted to a competitive one-site binding equation, defined as: [picture]

BtuCD = conditions: cited from earlier work
[3] = read-out: Kd of BtuF for its ligand; cited from earlier work
HisQM = system: HisQM; set-up: method as in PMID 8662800; conditions: cited from earlier work

T1 sequence (P68187 whole entry): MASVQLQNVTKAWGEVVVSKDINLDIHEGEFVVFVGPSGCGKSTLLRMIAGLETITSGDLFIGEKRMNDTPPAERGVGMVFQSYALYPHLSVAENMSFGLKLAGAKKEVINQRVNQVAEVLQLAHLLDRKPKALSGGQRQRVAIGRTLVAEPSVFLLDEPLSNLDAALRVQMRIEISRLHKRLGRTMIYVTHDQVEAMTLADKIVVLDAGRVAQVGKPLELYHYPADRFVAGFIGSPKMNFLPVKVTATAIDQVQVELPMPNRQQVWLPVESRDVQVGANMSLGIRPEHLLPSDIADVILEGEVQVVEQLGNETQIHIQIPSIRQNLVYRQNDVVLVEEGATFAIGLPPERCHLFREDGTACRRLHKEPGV
T1 sequence (P68183 whole entry): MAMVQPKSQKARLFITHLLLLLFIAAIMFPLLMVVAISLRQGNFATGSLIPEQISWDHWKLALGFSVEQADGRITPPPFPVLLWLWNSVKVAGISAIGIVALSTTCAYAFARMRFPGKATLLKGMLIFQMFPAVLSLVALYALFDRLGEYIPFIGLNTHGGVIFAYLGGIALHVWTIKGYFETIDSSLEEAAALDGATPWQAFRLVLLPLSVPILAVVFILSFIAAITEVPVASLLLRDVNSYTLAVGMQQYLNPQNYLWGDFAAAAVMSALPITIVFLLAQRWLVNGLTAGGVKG
T1 sequence (P02916 whole entry): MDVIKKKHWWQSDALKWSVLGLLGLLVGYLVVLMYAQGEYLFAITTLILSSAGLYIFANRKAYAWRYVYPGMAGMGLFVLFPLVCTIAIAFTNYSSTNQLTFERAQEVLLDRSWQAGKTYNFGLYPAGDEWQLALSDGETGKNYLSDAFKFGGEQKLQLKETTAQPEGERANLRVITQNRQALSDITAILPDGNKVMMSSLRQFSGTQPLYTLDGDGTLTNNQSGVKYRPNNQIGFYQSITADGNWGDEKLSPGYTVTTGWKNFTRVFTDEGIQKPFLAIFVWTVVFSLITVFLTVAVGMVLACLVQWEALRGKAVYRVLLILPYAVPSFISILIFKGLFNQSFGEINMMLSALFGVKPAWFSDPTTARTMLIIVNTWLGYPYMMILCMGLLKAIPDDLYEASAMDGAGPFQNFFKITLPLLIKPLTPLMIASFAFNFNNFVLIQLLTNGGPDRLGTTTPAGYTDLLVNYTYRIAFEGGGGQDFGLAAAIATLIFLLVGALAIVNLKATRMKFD
T2 sequence (P68187 whole entry): as the sequence (P68187 whole entry) above
T2 sequence (P68183 whole entry): as the sequence (P68183 whole entry) above
T2 sequence (P02916 whole entry T177W): as the sequence (P02916 whole entry) above, with T177W counted along it

With `OC[C@H]1O[C@H](O[C@H]2[C@H](O)[C@@H](O)C(O)O[C@@H]2CO)[C@H](O)[C@@H](O)[C@@H]1O` (mixture of isomers) [maltose] the “effect of maltose on binding of MalE to MalFGK2 on native-PAGE” value (Nd-MalFGK2 [1]) was “significantly reduced”, the “effect of maltose on MalE-stimulated ATPase activity” value (Nd-MalFGK2 [2]; in disc and in detergent, maltose 1 mM, MalE 2 µM) was “significant inhibition of the ATPase activity” and the “effect of maltose alone on basal ATPase activity” value (Nd-MalFGK2 [2]; no MalE) was “did not effect the basal ATPase activity”. For the same molecule, the “dissociation of MalE from the transporter in nanodiscs” value (MalE-MalFGK2 complex) was “rapid loss of fluorescence quenching”.

B1: BtuF: substrate binding protein of the vitamin B12 transporter (protein, UniProt P37028 23-266, looked up)
Vitamin B12-binding protein: APRVITLSPANTELAFAAGITPVGVSSYSDYPPQAQKIEQVSTWQGMNLERIVALKPDLVIAWRGGNAERQVDQLASLGIKVMWVDATSIEQIANALRQLAPWSPQPDKAEQAAQSLLDQYAQLKAQYADKPKKRVFLQFGINPPFTSGKESIQNQVLEVCGGENIFKDSRVPWPQVSREQVLARSPQAIVITGGPDQIPKIKQYWGEQLKIPVIPLTSDWFERASPRIILAAQQLCNALSQVD
In the case of B1, the “reduction of the BtuF-BtuCD interaction by saturating vitamin B12” value (BtuCD) is listed as ~10^5 fold and the Kd [3] is listed as ~15 nM.

B2: HisJ: binding protein of histidine transport, binds HisQM (protein, UniProt P0AEU0 23-260, looked up)
Histidine-binding periplasmic …: AIPQNIRIGTDPTYAPFESKNSQGELVGFDIDLAKELCKRINTQCTFVENPLDALIPSLKAKKIDAIMSSLSITEKRQQEIAFTDKLYAADSRLVVAKNSDIQPTVESLKGKRVGVLQGTTQETFGNEHWAPKGIEIVSYQGQDNIYSDLTAGRIDAAFQDEVAASEGFLKQPVGKDYKFGGPSVKDEKLFGVGTGMGLRKEDNELREALNKAFAEMRADGTYEKLAKKYFDFDVYGG
In the case of B2, the “reduction of binding of HisJ to HisQM by saturating histidine” value (HisQM) is listed as 3 fold.
